Key:
BI-2536 = compound: CC[C@@H]1C(=O)N(C)c2cnc(Nc3ccc(C(=O)NC4CCN(C)CC4)cc3OC)nc2N1C1CCCC1 [BI-2536]; test: relative viability (nuclei count vs DMSO), 5 days (fraction); higher = more cells survive
How it was run: (§1)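 Hoechst staining, done together with fixation and permeabilisation, marked nuclei for 4× imaging and MetaXpress counting. This followed 5 days without medium change after lung cancer cell lines, kept overnight at 37 °C in 1536-well plates, were pinned with five library-drug doses (not always all listed) spaced by √10 on vehicle-anchored plates. Viability is the ratio of treated-well to vehicle-well nuclei, expressed as a median across plates. Plates passed only at control CV below 25% with at least one doubling.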

NPK76-II-72-1 = compound: CC1CC(=O)N(C2=CN=C(N=C2N1C3CCCC3)NC4=C(C=C(C=C4)C(=O)NC5CCN(CC5)C)OC)C [NPK76-II-72-1]; test: as above
How it was run: as §1

Cell Line	relative viability (BI-2536; 0.01 µM)	relative viability (BI-2536; 0.03162 µM)	relative viability (BI-2536; 0.1 µM)	relative viability (BI-2536; 0.3162 µM)	relative viability (BI-2536; 1 µM)	relative viability (NPK76-II-72-1; 0.01 µM)	relative viability (NPK76-II-72-1; 0.03162 µM)	relative viability (NPK76-II-72-1; 0.1 µM)	relative viability (NPK76-II-72-1; 0.3162 µM)	relative viability (NPK76-II-72-1; 1 µM)
NCI-H1666	0.945	0.959	0.9	0.466	0.377	0.957	0.992	0.959	0.845	1.11
NCI-H1703	0.896	0.614	0.525	0.158	0.131	0.842	1.07	0.935	0.979	1.27
NCI-H1734	1.01	0.725	0.234	0.199	0.211	0.926	1.03	1	0.967	1.1
NCI-H1755	0.994	0.974	0.695	0.332	0.291	0.97	0.998	1	0.979	1.02
NCI-H1792	1.03	0.851	0.416	0.168	0.114	0.874	0.895	0.906	0.857	1.04
NCI-H1793	0.912	0.816	0.314	0.161	0.196	0.76	1.06	1.15	0.741	0.915
NCI-H1915	0.977	0.932	0.544	0.0978	0.117	0.984	1.1	1	0.882	0.996
NCI-H1944	0.902	1.07	0.649	0.203	0.194	0.931	0.974	0.92	0.921	1.08
NCI-H1975	0.859	0.975	0.612	0.207	0.159	0.963	0.942	0.954	0.931	1.02
NCI-H1993	1.04	0.793	0.543	0.684	0.587	0.827	0.981	0.942	0.89	1.09
NCI-H2009	0.959	0.918	0.579	0.198	0.209	0.98	1.05	1	0.933	1.1
NCI-H2023	0.954	0.909	0.266	0.0935	0.11	0.904	1.05	1.07	0.941	0.96
NCI-H2085	1.01	0.976	0.798	0.222	0.333	0.921	1.02	0.961	0.952	1
NCI-H2087	1.11	1.06	0.607	0.105	0.133	0.98	1.03	0.868	0.889	1.05
NCI-H2126	1.02	0.991	0.656	0.314	0.245	0.966	1.06	0.999	0.996	1.09
NCI-H2170	0.971	0.896	0.273	0.204	0.204	0.939	0.977	0.928	0.71	1.11
NCI-H2228	0.972	0.991	0.279	0.142	0.228	0.945	0.974	1.08	0.883	1.06
NCI-H2342	0.818	0.909	0.865	0.418	0.393	1.02	1.08	0.954	0.823	1.04
NCI-H2347	0.942	1.07	0.941	0.483	0.43	0.924	1.05	0.948	0.982	1.05
NCI-H2405	0.965	0.918	0.465	0.279	0.406	0.986	0.991	1.03	1.01	1.05
NCI-H3122	0.992	0.942	0.243	0.173	0.145	0.97	1.01	0.988	1	1
PC-3 [JPC-3]	1.07	0.99	0.751	0.281	0.282	1.02	1.11	0.945	1.08	1.07
PC-14	0.998	0.926	0.681	0.0519	0.0481	0.94	1.05	0.992	0.997	1.04
RERF-LC-KJ	0.987	1.01	0.765	0.211	0.237	0.959	1.01	0.986	0.889	1.06
SK-LU-1	1.03	0.989	0.477	0.248	0.225	0.987	1.02	1.02	0.947	1.01
SK-MES-1	1.07	0.975	0.614	0.196	0.179	0.986	1.03	0.989	1.01	1.09
SW 900	0.883	0.937	0.696	0.244	0.205	0.786	0.757	0.796	0.936	0.947
SW 1573	1.05	0.921	0.487	0.131	0.134	0.902	1	0.988	0.956	0.969
